From BindingDB's records for doi:10.1021/jm00019a006 (Glaxo Wellcome Medicines Research Centre, 1995)

Test: The compound was tested for binding affinity against Tachykinin receptor 1 from rabbit cortex

O=C1OC2(CCN(CCc3c[nH]c4ccc(F)cc34)CC2)CN1Cc1ccccc1
Ki: 7.94 µM
